Drawing on PubChem BioAssay AID198 (DTP/NCI, 2004), this text covers T/C for 21 molecules.

In this assay the test system is B16 melanoma ip, C57BL/6 mice, median survival T/C. Put plainly: NCI In Vivo Anticancer Drug Screen. Data for tumor model B16 Melanoma (intraperitoneal) in C57BL/6 mice. The following applies: endpoint: median survival time, higher = longer survival. How it is done: The antitumor activity of compounds was measured in mice bearing transplantable tumors. Survival or tumor size were measured and the results are expressed as the measurement made in the treated group (T) divided by the measurement made in the vehicle treated control group (C). The tumor model used in this assay is B16 Melanoma (intraperitoneal) in C57BL/6 mice

[1] abbreviates: dose: 12.5 mg/kg/injection, schedule: Q01DX009 (ip), vehicle: saline.
Setting [2] is: dose: 25.0 mg/kg/injection, schedule: Q01DX009 (ip), vehicle: saline.
Setting [3] is: dose: 50.0 mg/kg/injection, schedule: Q01DX009 (ip), vehicle: saline.
[4] abbreviates: dose: 100.0 mg/kg/injection, schedule: Q01DX009 (ip), vehicle: saline.
[5] abbreviates: dose: 100.0 mg/kg/injection, schedule: Q01DX009 (ip), vehicle: saline with Tween-80.
Setting [6] is: dose: 200.0 mg/kg/injection, schedule: Q01DX009 (ip), vehicle: saline with Tween-80.
The mark [7] stands for this setting: dose: 200.0 mg/kg/injection, schedule: Q01DX009 (ip), vehicle: saline.
Where [8] appears, read: dose: 62.5 mg/kg/injection, schedule: Q01DX009 (ip), vehicle: saline.
Where [9] appears, read: dose: 125.0 mg/kg/injection, schedule: Q01DX009 (ip), vehicle: saline.
Setting [10] is: dose: 250.0 mg/kg/injection, schedule: Q01DX009 (ip), vehicle: saline.
Setting [11] is: dose: 6.25 mg/kg/injection, schedule: Q01DX009 (ip), vehicle: saline.
The mark [12] stands for this setting: dose: 500.0 mg/kg/injection, schedule: Q01DX009 (ip), vehicle: saline.

Each structure is given as a SMILES string. Values joined by “and” are separate entries in the source; they are usually repeats but may differ in a detail not shown here. Identical values can stand only once. Toxic doses and inconclusive results are not listed.

In the case of `CC(=O)[C@@]1(O)CC[C@H]2[C@@H]3C[C@H](C)C4=CC(=O)C=C[C@]4(C)[C@@]3(F)[C@@H](O)C[C@@]21C`, the T/C was 105 % of control under setting [1]; 106 % of control (dose: 12.5 mg/kg/injection, schedule: Q01DX009 (sc), vehicle: steriod suspending solution); 105 % of control under setting [2]; 103 % of control (dose: 25.0 mg/kg/injection, schedule: Q01DX009 (sc), vehicle: steriod suspending solution); 100 % of control under setting [3]; 100 % of control under setting [4].
In the case of `CC(=O)OC(C)(C)/C=C/C(=O)[C@](C)(O)[C@H]1[C@H](O)C[C@@]2(C)[C@@H]3CC=C4[C@@H](C[C@H](O)C(=O)C4(C)C)[C@]3(C)C(=O)C[C@]12C`, the T/C is, setting by setting: (dose: 0.25 mg/kg/injection, schedule: Q01DX009 (ip), vehicle: saline with Tween-80) 92 % of control; (dose: 0.5 mg/kg/injection, schedule: Q01DX009 (ip), vehicle: saline with Tween-80) 100 % of control; (dose: 1.0 mg/kg/injection, schedule: Q01DX009 (ip), vehicle: saline with Tween-80) 92 % of control.
Regarding `CC[C@]1(O)C[C@H]2CN(CCc3c([nH]c4ccccc34)[C@@](C(=O)OC)(c3cc4c(cc3OC)N(C=O)[C@H]3[C@@](O)(C(=O)OC)[C@H](OC(C)=O)[C@]5(CC)C=CCN6CC[C@]43[C@@H]65)C2)C1`, the T/C (dose: 0.06 mg/kg/injection, schedule: Q01DX009 (ip), vehicle: saline) is 182 % of control and the T/C (dose: 0.13 mg/kg/injection, schedule: Q01DX009 (ip), vehicle: saline) is 189 % of control.
Take `CC1=C2C(=CC(C)(C)[C@@H]2O)C(=O)[C@](C)(O)C12CC2`: the T/C was 110 % of control (dose: 0.17 mg/kg/injection, schedule: Q01DX009 (ip), vehicle: saline); 106 % of control (dose: 0.26 mg/kg/injection, schedule: Q01DX009 (ip), vehicle: saline); 106 % of control (dose: 0.4 mg/kg/injection, schedule: Q01DX009 (ip), vehicle: saline); 106 % of control (dose: 0.6 mg/kg/injection, schedule: Q01DX009 (ip), vehicle: saline).
With `O=C1CN=C(c2ccc[nH]2)c2cc(Cl)ccc2N1`, the T/C under setting [1] is 107 % of control; the T/C (dose: 25.0 mg/kg/injection, schedule: Q01DX009 (ip), vehicle: saline with Tween-80) is 107 % of control; the T/C under setting [2] is 105 % of control; the T/C (dose: 50.0 mg/kg/injection, schedule: Q01DX001 (ip), vehicle: saline) was 100 % of control; the T/C (dose: 50.0 mg/kg/injection, schedule: Q01DX009 (ip), vehicle: saline with Tween-80) is 100 % of control; the T/C under setting [3] is 97 % of control. Also, the T/C by setting is: (dose: 100.0 mg/kg/injection, schedule: Q01DX001 (ip), vehicle: saline) 100 % of control; under setting [5], 103 % of control; under setting [4], 97 % of control; (dose: 200.0 mg/kg/injection, schedule: Q01DX001 (ip), vehicle: saline) 97 % of control; under setting [6], 107 % of control; under setting [7], 112 % of control. Further, the T/C (dose: 400.0 mg/kg/injection, schedule: Q01DX001 (ip), vehicle: saline) was 102 % of control.
As to `C/C(=C\COc1ccc2ccc(=O)oc2c1)C1=CC(=O)C(C)(C)O1`, the T/C under setting [5] was 94 % of control; the T/C under setting [6] is 100 % of control; the T/C (dose: 400.0 mg/kg/injection, schedule: Q01DX009 (ip), vehicle: saline with Tween-80) was 94 % of control.
Consider `S=c1nc[nH]c2nc[nH]c12`, for which the T/C runs as follows: (dose: 7.5 mg/kg/injection, schedule: Q01DX009 (ip), vehicle: saline) 93 % of control and 100 % of control; (dose: 15.0 mg/kg/injection, schedule: Q01DX009 (ip), vehicle: saline) 90 % of control and 93 % of control; (dose: 30.0 mg/kg/injection, schedule: Q01DX009 (ip), vehicle: saline) 93 % of control; (dose: 60.0 mg/kg/injection, schedule: Q01DX009 (ip), vehicle: saline) 93 % of control.
Regarding `COc1ccc(-c2c(C)c(C(=O)O)nc(-c3ccc4c(O)c(OC)c5c(c4n3)=NC(C)(C)N=5)c2N)c(O)c1OC`, the T/C runs as follows: (dose: 10.0 mg/kg/injection, schedule: Q01DX009 (ip), vehicle: saline) 124 % of control; (dose: 20.0 mg/kg/injection, schedule: Q01DX009 (ip), vehicle: saline) 107 % of control.
As for `C[C@]12C=CC(=O)C=C1CC[C@@H]1[C@@H]2C(=O)C[C@@]2(C)[C@H]1CC[C@]2(O)C(=O)CO`, the T/C under setting [1] is 100 % of control, the T/C under setting [2] was 100 % of control and the T/C under setting [4] was 88 % of control.
Consider `Cc1nc(N)sc1CCCl`, for which the T/C is 100 % of control (dose: 10.0 mg/kg/injection, schedule: Q01DX009 (ip), vehicle: saline sonified); 107 % of control (dose: 20.0 mg/kg/injection, schedule: Q01DX009 (ip), vehicle: saline sonified); 103 % of control (dose: 40.0 mg/kg/injection, schedule: Q01DX009 (ip), vehicle: saline sonified); 107 % of control (dose: 80.0 mg/kg/injection, schedule: Q01DX009 (ip), vehicle: saline sonified).
As to `CC1CCC(NC(=O)N(CCCl)N=O)CC1` (configuration not stated), the T/C (dose: 1.9 mg/kg/injection, schedule: Q01DX001 (ip), vehicle: saline) is 100 % of control; the T/C (dose: 3.75 mg/kg/injection, schedule: Q01DX001 (ip), vehicle: saline) is 112 % of control; the T/C (dose: 7.5 mg/kg/injection, schedule: Q01DX001 (ip), vehicle: saline) was 103 % of control; the T/C (dose: 15.0 mg/kg/injection, schedule: Q01DX001 (ip), vehicle: saline) was 115 % of control.
Turning to `OCC1OC(n2cnc3c(Cl)ncnc32)C(O)C1O` (configuration not stated), the T/C was 106 % of control and 107 % of control (dose: 31.3 mg/kg/injection, schedule: Q01DX009 (ip), vehicle: saline); 93 % of control and 100 % of control under setting [8]; 93 % of control and 100 % of control under setting [9]; 86 % of control and 100 % of control under setting [10].
Consider `CN(C)CCCN1c2ccc(O)cc2Sc2ccc(Cl)cc21`, for which the T/C under setting [11] is 109 % of control; the T/C under setting [1] is 115 % of control; the T/C under setting [2] is 103 % of control; the T/C under setting [3] is 103 % of control and 106 % of control; the T/C under setting [4] was 100 % of control.
Regarding `O=c1[nH]c(=O)c2n[nH]nc2[nH]1`, the T/C by setting is: under setting [8], 96 % of control; under setting [9], 100 % of control; under setting [10], 92 % of control; under setting [12], 92 % of control.
`O=c1[nH]cc(N(CCCl)CCCl)c(=O)[nH]1`: the T/C (dose: 1.5 mg/kg/injection, schedule: Q01DX009 (ip), vehicle: saline) is 87 % of control and 106 % of control.
Turning to `O=C(N[C@H](CO)[C@H](O)c1ccc([N+](=O)[O-])cc1)C(Cl)Cl`, the T/C was 106 % of control and 114 % of control under setting [8]; 106 % of control and 107 % of control under setting [9]; 106 % of control and 117 % of control under setting [10]; 106 % of control and 107 % of control under setting [12].
Take `O=C(Nc1ccc(C2=NCCN2)cc1)c1ccc(C(=O)Nc2ccc(C3=NCCN3)cc2)cc1`: the T/C by setting is: (dose: 8.0 mg/kg/injection, schedule: Q01DX009 (ip), vehicle: saline) 100 % of control; (dose: 16.0 mg/kg/injection, schedule: Q01DX009 (ip), vehicle: saline) 92 % of control and 109 % of control; (dose: 32.0 mg/kg/injection, schedule: Q01DX009 (ip), vehicle: saline) 92 % of control and 106 % of control; (dose: 64.0 mg/kg/injection, schedule: Q01DX009 (ip), vehicle: saline) 96 % of control and 106 % of control.
Take `Cn1c(=O)c2ncnnc2n(C)c1=O`: the T/C was 106 % of control under setting [11] and 103 % of control under setting [1].
As to `CC1OC(O[C@@H]2C=C3CC[C@@H]4[C@H](CC[C@]5(C)[C@@H](c6ccc(=O)oc6)CC[C@]45O)[C@@]3(C)CC2)C(O)C(O)C1O` (some centres not stated), the T/C was 113 % of control (dose: 2.5 mg/kg/injection, schedule: Q01DX009 (sc), vehicle: steriod suspending solution) and 97 % of control (dose: 5.0 mg/kg/injection, schedule: Q01DX009 (sc), vehicle: steriod suspending solution).
As to `COC(N)=O`, the T/C under setting [8] is 100 % of control and 107 % of control; the T/C under setting [9] is 103 % of control and 106 % of control; the T/C under setting [10] is 100 % of control and 107 % of control; the T/C under setting [12] is 110 % of control.
On to `[N-]=[N+]=CC(=O)NCC(=O)NN`, for which the T/C under setting [3] was 107 % of control; the T/C under setting [4] is 110 % of control; the T/C under setting [7] was 121 % of control; the T/C (dose: 400.0 mg/kg/injection, schedule: Q01DX009 (ip), vehicle: saline) was 117 % of control.
